According to US20080051413A1, “Nitrophenylpiperazine derivative of xanthine which relaxes tracheal airway and increases respiratory performance” (KAOHSIUNG MEDICAL UNIVERSITY, priority 2006, published 2008):

What was measured:
[1] = target: T1, PDE5 purified from human platelets (Homo sapiens, UniProt O76074); experiment: Phosphodiesterase activity, PDE5; format: biochemical; details: 10 _M compound, n = 3
T1 construct: PDE3 and PDE5 purified from human platelets; from tissue; host or cells: human platelets
Experimental: The reaction was terminated by boiling for 2 min, and the resulting GMP was converted to adenosine by the addition of 10 mg/ml snake venom nucleotidase, which was followed by a further incubation at 37_ for 10 min. Unhydrolyzed cGMP was bound to AG1-X2 resin, and the remaining [^3H]guanosine in the aqueous phase was quantitated by scintillation counting.

[2] = test system: respiratory performance; experiment: Pulmonary function after i.v. injection (RL, Cdyn, tidal volume); format: in vivo; details: 1 mg/kg i.v., guinea pig, n = 3
Experimental: (§1) Animals: Male Dunkin Harley guinea pigs (350-450 g) were provide by the National Laboratory Animal Breeding and Research Center (Taipei, Taiwan) and housed under conditions of constant temperature and controlled illumination. Food and water were available and libitum. The study was approved by the Animal Care and Use Committee of the Kaohsiung Medical University.
(§2) Pulmonary Function: Guinea pegs (350-450 g) were anesthetized with pentobarbital (40 mg/kg i.p.) and maintained with further i.v. doses of 2 to 5 mg/kg when required according to methods previously described (Wu B N, Lin R J, Lo Y C, Shen K P, Wang C C, Lin Y T, and Chen I J (2004) KMUP-1, a xanthine derivative, induces relaxation of guinea-pig isolated trachea: the role of the epithelium, cyclic nucleotides and K^+ channels, Br J Pharmacol 142:1105-1114). The animal was tethered in a supine position, and the trachea was cannulated below the larynx with a short tracheal cannula via a tracheotomy. Tracheal pressure was measured by a catheter connected to the side arm of the tracheal cannula. The carotid artery and jugular vein were cannulated to monitor blood pressure and heart rate and for drug administration, respectively. Throughout the experiment, the body temperature of the guinea pig was maintained at 37_. Measurements of pulmonary cardiac function were carried out as previously described (Hsu T H, Lai Y L, and Kou Y R (1998) Acetylcholine and tachykinin receptor antagonists attenuate wood smoke-induced bronchoconstriction in Guinea pigs. Eur J Pharmacol 360:175-183). Total lung resistance (RL) and dynamic lung compliance (Cdyn) were measured on a breath-by-breath basis using a computer equipped with an A/D interface (DAS 1600; Buxco Electronics, Inc., Wilmington, N.C.) and software (version 1.5.7; Buxco Electronics, Inc.). Results obtained from the computer analysis were checked for accuracy by comparison with those calculated manually.
Animals were allowed to stabilize for 10 min following surgical manipulations before the test agent was administered. Intratracheal instillation was performed using a catheter placed through the tracheal tube into the bronchial system. The catheter connected to a 1-ml syringe was inserted into the trachea cannula extending 1 cm beyond the tip of the cannula for instillation of drug or vehicle. The instillation was followed by rapid intratracheal injection of 0.5 ml of air to facilitate deposition of drug or vehicle into the lungs as in the modified methods of Chung et al. (2001)(Chung W H, Bennett B M, Racz W J, Brien J F, and […] Fischer 344 rats during aminodarone-induced pulmonary fibrosis. Am J Physiol 281:L1180-L1188). The animals were pretreated intratracheally with KMUP-3 (0.5, 1.0, and 2.0 mg/kg/150 _l of saline) or an equivalent volume (150 _l) of vehicle 15 min before TNF-_(0.01 mg/kg/300 _l saline) was instilled to induce acute bronchoconstriction. In another experiments, KMUP-3 or KMUP-1 (1.0 mg/kg i.v.) were used to compare the effects on respiratory performance, indicated by changes of tidal volume, total RL, and Cdyn.

[3] = test system: TNF-_-induced bronchoconstriction; experiment: TNF-_-induced bronchoconstriction, intratracheal instillation; format: in vivo, guinea pig
Experimental: as §1, §2
Animals were allowed to stabilize for 10 min following surgical manipulations before the test agent was administered. […]

[4] = test system: guinea pig TSM strips; experiment: Determination of nitrite in TSM strips; details: 100 _M, 30 min, EP+ TSM, basal 0.8±0.1 _M/mg, n=3
Experimental: Determination of Nitrite: To measure concentrations of nitrite (NO2^−) in guinea pig TSM strips, TSM strips were pretreated with KMUP-3 (100 _M) in Krebs' solution for 30 min. Then guinea pig TSM strips (2 ml/g tissue of methanol) were ultrasonically homogenized in an ice bath and then centrifuged at 10,000 g for 10 min at 4_. Briefly, harvestable supernatants were reacted with an equal volume of Griess reagents (1% […]/0.1% N-L-naphthylethylenediamine dihydrochloride/5% H3PO4) for 10 min to form a colored azo dye. The absorbance at 540 nm was detected by a flow-through visible spectrophotometer, and an equal volume of methanol was used for blank control.

[5] = 0.5, 1.0, 2.0 mg/kg intratracheal, 15 min prior to TNF-_ (0.01 mg/kg)

Cn1c(=O)c2c(ncn2CCN2CCN(c3ccc([N+](=O)[O-])cc3)CC2)n(C)c1=O [KMUP-3]
PDE5 Inhibition [1]: 48 ± 1.9 % | Cdyn, Maximum change of baseline (%) [2]: 50 ± 5.5 % | RL, Maximum change of baseline (%) [2]: −55 ± 4.5 % | Tidal Volume, Maximum change of baseline (%) [2]: 21.7 ± 0.5 % | effect on Cdyn in TNF-_-induced bronchocontraction (FIG. 2) [3, 5]: increasing Cdyn | effect on RL in TNF-_-induced bronchocontraction (FIG. 2) [3, 5]: decreasing RL | Blood pressure and heart rate ([3]; intratracheal instillation, during recording of lung function): not significantly changed | NO2— release in comparison with the basal level [4]: 160±15%
